Assay results reported in patent US10294228B2, “Breathing control modulating compounds, and methods of making and using same” (NEURAD LTD., priority 2015, dated 2019).
Where a name gives a salt, the structure may show the parent alone.

Tested on: anesthetized rats
Assay: Anesthetized rat spirometry screening assay (ventilatory activity, minute volume)
Format: in vivo
Conditions: increase in minute volume (VE); for change in vivo at 0.3 mg/kg: 0.3 mg/kg IV bolus, read-out: VE % Inc @ 0.3 mg/kg IV; for change in vivo at 3 mg/kg: 3.0 mg/kg IV bolus, read-out: VE % Inc @ 3.0 mg/kg IV
Method: Anesthetized rats provide a quick method of screening compounds for respiratory and cardiovascular activity.
Rats were initially anesthetized with 3% isoflurane (inhaled) and femoral artery and vein cannulas were surgically inserted. Once cannulated, the rats were transitioned to urethane anesthesia (1.5 g/kg; i.v.) and a tracheal cut-down was performed. After placing the tracheal cannula, it was connected to a pneumotachometer to record respiratory airflow from which respiratory rate (RR), tidal volume (VT), and their product minute volume (MV, also termed VE) were derived. After the surgical preparation was complete, animals were allowed to stabilize for 30 minutes while respiratory rate, tidal volume, minute volume, blood pressure and heart rate were recorded continuously. Arterial blood gases (ABG) were obtained from arterial blood collected from the femoral artery. ABG measurements were taken before and 6 minutes after vehicle and each dose of compound administered. Compounds being screened were administered via bolus injections through the venous cannula followed by a saline flush (total time of administration is approximately 30 seconds), and the animal was monitored for at least 6 minutes for changes in cardiovascular efforts. Compounds were prepared in formulations identified to ensure optimal solubility. As such, vehicle controls were matched for the formulation of each compound tested. Dosing of the compounds being screened was conducted at 0.1 and/or 0.3 mg/kg and/or 3 mg/kg The next dose was not administered until all cardiovascular and respiratory measures had returned to baseline levels. The positive control compounds used were N-[4,6-di-(n-propylamino)-[1,3,5]triazin-2-yl]-N,O-dimethyl-hydroxylamine or N-[2,6-di-(n-propylamino)-[1,3]pyrimidin-4-yl]-N,O-dimethyl-hydroxylamine (both administered at the end of each screening experiment (0.3 mg/kg dose) to validate the experiment and also to serve as a measure with which the compound being screened could be compared.
Data were analyzed by collecting cardiovascular and respiratory data in 30 second averages (BINs). Data were plotted 2 minutes before challenge and then 6 minutes after challenge.

Compound | change in vivo at 0.3 mg/kg | change in vivo at 3 mg/kg
CCCNc1nc(NC)c2nc(NCC(C)O)nc(NC)c2n1 (stereo not drawn) [Compound 95, 1-(4,8-Bis-methylamino-6-propylamino-pyrimido[5,4-d]-pyrimidin-2-ylamino)-propan-2-ol] | 138% | 
CCCNc1nc(NC)nc2c(N3CCC(O)C3)nc(NC)nc12 (stereo not drawn) [Compound 71a, 1-(2,6-Bis-methylamino-8-propylamino-pyrimido[5,4-d]pyrimidin-4-yl)-pyrrolidin-3-ol Hydrochloride] | 17% | 84%
CCNc1nc(NCC(C)(C)O)c2nc(NCC)nc(NCC)c2n1 [Compound 49a, 2-Methyl-1-(2,6,8-tris-ethylamino-pyrimido[5,4-d]-pyrimidin-4-ylamino)-propan-2-ol Hydrochloride] | 127% | 183%
CCNc1nc(NCC)c2nc(NC[C@@H](C)O)nc(NCC)c2n1 [Compound 186, (R)-1-(4,6,8-Tris-ethylamino-pyrimido[5,4-d]pyrimidin-2-ylamino)-propan-2-ol] | 37% | 90%
CNc1nc(NCC2CC2)c2nc(NC)nc(NCCO)c2n1 [Compound 54a, 2-[8-(Cyclopropylmethyl-amino)-2,6-bis-methylamino-pyrimido[5,4-d]pyrimidin-4-ylamino]-ethanol Hydrochloride] | 165% | 
CC[C@H](C)Nc1nc(NC)nc2c(NCC(C)(C)O)nc(NC)nc12 [Compound 42a, 1-[8-((S)-sec-Butylamino)-2,6-bis-methylamino-pyrimido[5,4-d]-pyrimidin-4-ylamino]-2-methyl-propan-2-ol Hydrochloride] | 76% | 149%
C=CCNc1nc(NC)c2nc(NCCO)nc(NC)c2n1 [Compound 154, 2-(6-Allylamino-4,8-bis-methylamino-pyrimido[5,4-d]pyrimidin-2-ylamino)-ethanol] | 40% | 103%
CNc1nc(NC)c2nc(NCC(C)(C)O)nc(NC)c2n1 [Compound 149, 2-Methyl-1-(4,6,8-tris-methylamino-pyrimido[5,4-d]pyrimidin-2-ylamino)-propan-2-ol] | 16% | 49%
CCCNc1nc(NCC(F)(F)F)nc2c(NCCO)nc(NCC(F)(F)F)nc12 [Compound 28a, 2-[8-propylamino-2,6-bis-(2,2,2-trifluoroethylamino)-pyrimido[5,4-d]pyrimidin-4-ylamino]ethanol hydrochloride] | 16% | 
CCCNc1nc(NC)c2nc(N[C@@H]3CCC[C@H]3O)nc(NC)c2n1 [Compound 141, (1R,2R)-2-(4,8-Bis-methylamino-6-propylamino-pyrimido[5,4-d]pyrimidin-2-ylamino)-cyclopentanol] | 71% | 146%
CNc1nc(NC[C@H](C)O)nc2c(NC)nc(N)nc12 [Compound 152, (S)-1-(6-Amino-4,8-bis-methylamino-pyrimido[5,4-d]-pyrimidin-2-ylamino)-propan-2-ol] | 7% | 89%
CCCNc1nc(NC)c2nc(N[C@@H]3c4ccccc4C[C@H]3O)nc(NC)c2n1 [Compound 129, (1R,2R)-1-(4,8-Bis-methylamino-6-propylamino-pyrimido[5,4-d]-pyrimidin-2-ylamino)-indan-2-ol] | 2% | 68%
CCCNc1nc(NC)nc2c(NC[C@@H](C)O)nc(NC)nc12 [Compound 14a, (R)-1-(2,6-Bis-methylamino-8-propylamino-pyrimido[5,4-d]pyrimidin-4-ylamino)-propan-2-ol Hydrochloride] | 88% | 
CNc1nc(NCC(F)F)c2nc(NC)nc(NCCO)c2n1 [Compound 60a, 2-[8-(2,2-Difluoro-ethylamino)-2,6-bis-methylamino-pyrimido[5,4-d]-pyrimidin-4-ylamino]-ethanol Hydrochloride] | 15% | 119%
C=CCNc1nc(NC)c2nc(NC[C@H](C)O)nc(NC)c2n1 [Compound 143, (S)-1-(6-Allylamino-4,8-bis-methylamino-pyrimido[5,4-d]pyrimidin-2-ylamino)-propan-2-ol] | 81% | 150%
CNc1nc(NCC(C)(C)O)nc2c(NC)nc(NCC(F)F)nc12 [Compound 107, 1-[6-(2,2-Difluoro-ethylamino)-4,8-bis-methylamino-pyrimido[5,4-d]pyrimidin-2-ylamino]-2-methyl-propan-2-ol] | 14% | 95%
CCCNc1nc(NC)nc2c(N[C@H]3CCCC[C@@H]3O)nc(NC)nc12 [Compound 83, (1S,2S)-2-(2,6-Bis-methylamino-8-propylamino-pyrimido[5,4-d]pyrimidin-4-ylamino)-cyclohexanol] | 176% | 153%
CC[C@@H](C)Nc1nc(NC)c2nc(NC[C@@H](C)O)nc(NC)c2n1 [Compound 100, (R)-1-[6-((R)-sec-Butylamino)-4,8-bis-methylamino-pyrimido[5,4-d]pyrimidin-2-ylamino]-propan-2-ol] | 33% | 139%
C=CCNc1nc(NC)c2nc(NC[C@@H](C)O)nc(NC)c2n1 [Compound 145, (R)-1-(6-Allylamino-4,8-bis-methylamino-pyrimido[5,4-d]pyrimidin-2-ylamino)-propan-2-ol] | 47% | 156%
CCCNc1nc(NC)nc2c(NCC(O)CC)nc(NC)nc12 (stereo not drawn) [Compound 24a, 1-(2,6-Bis-methylamino-8-propylamino-pyrimido[5,4-d]pyrimidin-4-ylamino)-butan-2-ol Hydrochloride] | 100% | 121%
CCCNc1nc(NC)nc2c(N[C@@H]3CCC[C@H]3O)nc(NC)nc12 [Compound 87, (1R,2R)-2-(2,6-Bis-methylamino-8-propylamino-pyrimido[5,4-d]pyrimidin-4-ylamino)-cyclopentanol] | 39% | 129%
CNc1nc(NC[C@H](C)O)nc2c(NC)nc(NCC3CC3)nc12 [Compound 142, (S)-1-[6-(Cyclopropylmethyl-amino)-4,8-bis-methylamino-pyrimido[5,4-d]pyrimidin-2-ylamino]-propan-2-ol] | 2% | 62%
C#CCNc1nc(NC)nc2c(NCCO)nc(NC)nc12 [Compound 58a, 2-(2,6-Bis-methylamino-8-prop-2-ynylamino-pyrimido[5,4-d]pyrimidin-4-ylamino)-ethanol Hydrochloride] | 10% | 
CNc1nc(NCC(C)(C)O)c2nc(NC)nc(NC)c2n1 [Compound 48a, 2-Methyl-1-(2,6,8-tris-methylamino-pyrimido[5,4-d]-pyrimidin-4-ylamino)-propan-2-ol Hydrochloride] | 20% | 78%
CCCNc1nc(NC)c2nc(NCC(O)CC)nc(NC)c2n1 (stereo not drawn) [Compound 117, 1-(4,8-Bis-methylamino-6-propylamino-pyrimido[5,4-d]pyrimidin-2-ylamino)-butan-2-ol] | 150% | 162%
